From ChEMBL document CHEMBL5241111, “Non-steroidal anti-inflammatory drugs: recent advances in the use of synthetic COX-2 inhibitors” (RSC Med Chem, 2022)
Converted amounts (≈) assume the structure as drawn.

How the values were obtained:
Rattus norvegicus [1] = assay: Antiinflammatory activity against rat model of carrageenan induced paw edema assessed as reduction in PGE2 level in plasma at 50 mg/kg, po pretreated for 1 hr followed by carrageenan addition and measured after 6 hrs by ELISA relative to control; format: functional; settings: time 7 hrs
Rattus norvegicus [2] = assay: Antiinflammatory activity against rat model of carrageenan induced paw edema assessed as inhibition of edema at 50 mg/kg, po pretreated for 1 hr followed by carrageenan addition and measured after 1 to 6 hrs relative to control; format: functional; settings: time 2-7 hrs
HCT-116 = assay: cells; settings: Homo sapiens, HCT-116, 48 h
A549 = assay: cells; settings: Homo sapiens, A549, 48 h
Homo sapiens [3] = species: Homo sapiens; assay: Inhibition of ROS production in human blood; format: functional
Albumin = Albumin (Bos taurus, UniProt P02769); assay: Inhibition of bovine serum albumin denaturation incubated for 15 mins
Homo sapiens [4] = species: Homo sapiens; assay: Inhibition of ROS production in human blood at 25 ug/ml relative to control; format: functional
Rattus norvegicus [5] = assay: Antiinflammatory activity against rat model of carrageenan induced paw edema assessed as reduction in TNFalpha level in plasma at 50 mg/kg, po pretreated for 1 hr followed by carrageenan addition and measured after 6 hrs by ELISA relative to control; format: functional; settings: time 7 hrs
Rattus norvegicus [6] = assay: Antiinflammatory activity against rat model of carrageenan induced paw edema assessed as reduction in IL-6 level in plasma at 50 mg/kg, po pretreated for 1 hr followed by carrageenan addition and measured after 6 hrs by ELISA relative to control; format: functional; settings: time 7 hrs
[7] = target: T1, Prostaglandin G/H synthase 2 (Homo sapiens, UniProt P35354); assay: Inhibition of human recombinant COX-2 by enzyme immunoassay
T1 sequence (P35354 whole entry): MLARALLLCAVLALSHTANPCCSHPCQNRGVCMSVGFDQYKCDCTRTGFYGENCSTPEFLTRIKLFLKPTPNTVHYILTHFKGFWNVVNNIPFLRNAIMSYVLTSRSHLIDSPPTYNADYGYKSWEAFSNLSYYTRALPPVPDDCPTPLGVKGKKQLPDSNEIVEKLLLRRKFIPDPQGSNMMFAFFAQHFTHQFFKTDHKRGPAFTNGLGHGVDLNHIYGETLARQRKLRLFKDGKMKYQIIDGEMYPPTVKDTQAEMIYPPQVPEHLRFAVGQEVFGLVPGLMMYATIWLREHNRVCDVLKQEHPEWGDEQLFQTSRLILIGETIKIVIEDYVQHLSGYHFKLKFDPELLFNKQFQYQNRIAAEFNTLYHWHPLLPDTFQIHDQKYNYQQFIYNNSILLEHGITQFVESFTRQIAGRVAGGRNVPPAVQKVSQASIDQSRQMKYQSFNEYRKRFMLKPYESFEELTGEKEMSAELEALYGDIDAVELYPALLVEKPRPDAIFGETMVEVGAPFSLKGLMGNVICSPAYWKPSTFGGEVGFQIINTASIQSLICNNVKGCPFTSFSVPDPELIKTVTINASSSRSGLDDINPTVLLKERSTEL

MCF7 = assay: cells; settings: Homo sapiens, MCF7, 48 h
[8] = target: T2, Prostaglandin G/H synthase 2 (Homo sapiens) (UniProt P35354); assay: Potency index, ratio of celecoxib IC50 to test compound IC50 for inhibition of COX-2 (unknown origin) by colorimetric assay
T2 sequence (whole entry): T1 sequence (P35354 whole entry)

[9] = target: T1, Prostaglandin G/H synthase 2; assay: Inhibition of COX-2 (unknown origin) by colorimetric assay
Rattus norvegicus [10] = assay: Antiinflammatory activity against rat model of carrageenan induced paw edema assessed as inhibition of edema measured after 1 to 6 hrs relative to control; format: functional; settings: time 1-6 hrs
Homo sapiens [11] = species: Homo sapiens; assay: Potency index, ratio of ibuprofen IC50 to test compound IC50 for inhibition of ROS production in human blood; format: functional

Sequence of Albumin (P02769 whole entry): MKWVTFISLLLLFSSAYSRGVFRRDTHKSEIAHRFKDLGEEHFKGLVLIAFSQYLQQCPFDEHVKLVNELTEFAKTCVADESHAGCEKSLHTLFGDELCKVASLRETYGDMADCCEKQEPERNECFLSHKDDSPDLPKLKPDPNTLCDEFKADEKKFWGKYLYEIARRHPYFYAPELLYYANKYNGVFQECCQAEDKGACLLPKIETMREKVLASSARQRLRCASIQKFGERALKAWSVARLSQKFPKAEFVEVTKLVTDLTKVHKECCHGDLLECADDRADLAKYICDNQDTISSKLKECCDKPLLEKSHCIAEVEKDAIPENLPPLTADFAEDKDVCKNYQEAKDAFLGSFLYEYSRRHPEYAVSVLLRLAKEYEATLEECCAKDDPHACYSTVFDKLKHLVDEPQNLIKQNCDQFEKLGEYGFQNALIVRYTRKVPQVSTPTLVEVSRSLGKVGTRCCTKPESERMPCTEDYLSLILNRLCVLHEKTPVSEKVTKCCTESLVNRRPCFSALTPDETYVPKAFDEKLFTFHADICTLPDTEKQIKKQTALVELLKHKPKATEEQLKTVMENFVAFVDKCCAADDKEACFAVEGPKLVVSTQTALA

## COc1cc(-c2cc(-c3cccc(-n4cnnn4)c3)no2)cc(OC)c1OC
Rattus norvegicus [1]
  inhibition in vivo at 50 mg/kg: 81%
Rattus norvegicus [2]
  inhibition in vivo at 50 mg/kg: 29.2%

## CCOc1ccc2nc(NC(=O)CSc3nnc(Cc4c[nH]c5ccccc45)o3)sc2c1
HCT-116
  IC50: 6.43 µM
A549
  IC50: 6.43 µM

## CC(C)Cc1ccc(C(C)C(=O)O)cc1 (stereo not drawn) [IBUPROFEN]
Homo sapiens [3]
  IC50: 11.2 µg/mL (≈ 54.3 µM)

## COc1ccc(C2=NN(C(N)=O)C(c3cn(-c4ccccc4)nc3-c3ccccc3)C2)cc1 (stereo not drawn)
Albumin
  IC50: 43.5 µM

## CCCC(=O)Nc1ccc(OC(=O)c2ccncc2)cc1
Homo sapiens [3]
  IC50: 3.7 µg/mL (≈ 13 µM)
Homo sapiens [4]
  inhibition in vivo at 25 µg/mL: 85.4%

## COc1cc(C2CC(c3cccc(-n4cnnn4)c3)=NN2C(C)=O)cc(OC)c1OC (stereo not drawn)
Rattus norvegicus [5]
  inhibition in vivo at 50 mg/kg: 55.4%
Rattus norvegicus [1]
  inhibition in vivo at 50 mg/kg: 81%
Rattus norvegicus [2]
  inhibition in vivo at 50 mg/kg: 29.2%
Rattus norvegicus [6]
  inhibition in vivo at 50 mg/kg: 61.6%

## O=c1/c(=C/c2cccc(O)c2)sc2nc(C34CC5CC(CC(C5)C3)C4)nn12
[7]
  IC50: 50 µM

## COc1cc(/C=c2\sc3nc(C45CC6CC(CC(C6)C4)C5)nn3c2=O)ccc1O
[7]
  IC50: 50 µM

## CCOP(=O)(OCC)C(NC(=O)c1cc(-c2cccc3ccccc23)n(-c2ccc(F)cc2)n1)c1ccccc1 (stereo not drawn)
MCF7
  IC50: 4.37 µM

## CCCCNc1cc(C(=O)n2nc(C)cc2-c2ccccc2)cc(S(N)(=O)=O)c1Oc1ccccc1
[8]
  Ratio IC50: 12
[9]
  IC50: 0.32 µM

## CCCCNc1cc(-c2n[nH]c(=S)n2-c2ccc(Br)cc2)cc(S(N)(=O)=O)c1Oc1ccccc1
[8]
  Ratio IC50: 12
[9]
  IC50: 0.17 µM

## CS(=O)(=O)c1ccc(-c2cc(-c3ccc(F)cc3)n(-c3ccc(S(N)(=O)=O)cc3)n2)cc1
Rattus norvegicus [10]
  inhibition (INH): 42.1%

## Nc1cccc(OC(=O)c2ccncc2)c1
Homo sapiens [11]
  Ratio IC50: 8
Homo sapiens [3]
  IC50: 1.42 µg/mL (≈ 6.63 µM)
Homo sapiens [4]
  inhibition in vivo at 25 µg/mL: 95.9%
